From ChEMBL document CHEMBL5365543, “Benzamidine Conjugation Converts Expelled Potential Active Agents into Antifungals against Drug-Resistant Fungi” (J Med Chem, 2023)
Values after ≈ are worked out from the molar mass of the structure shown. Active and inactive are the calls of the source. The rule behind the calls is not given here.

Tests used:
[1] = tested on: Candida albicans; experiment: Antifungal activity against clinical isolate fluconazole-resistant Candida albicans Gu5 infected in BALB/c mouse assessed as fold reduction in kidney fungal burden at 6 mg/kg, ip administered on day 1 and day 3 post fungal infection measured after 7 days; assay type: functional; details: time 7.0 day
[2] = Toxicity in BALB/c mouse infected with clinical isolate fluconazole-resistant Candida albicans Gu5 assessed as animal survival at 6 mg/kg, ip administered on day 1 and day 3 post fungal infection measured after 4 days; assay type: organism-based; details: in vivo, 96 h, time 4 day
[3] = Induction of DNA damage in human HBE cells assessed as increase in gammaH2AX level at 8 microg/ml by Western blotting analysis; assay type: toxicity, cell-based; details: dose 8 µg/ml
[4] = tested on: [Candida] auris; experiment: Antifungal activity against clinical isolate fluconazole-resistant Candida auris CBS12776 assessed as inhibition of fungal growth measured after 24 hrs by CLSI based microtiter plate analysis; assay type: functional; details: Candidozyma auris
[5] = tested on: Candida albicans; experiment: Antifungal activity against clinical isolate fluconazole-resistant Candida albicans G5 harbouring MRR1 mutation overexpressing MdrL assessed as inhibition of fungal growth measured after 24 hrs by CLSI based microtiter plate analysis; assay type: functional
[6] = tested on: Candida albicans; experiment: Antifungal activity against clinical isolate fluconazole-resistant Candida albicans Gu5 harbouring TAC1 mutation overexpressing efflux pump CdrL and Cdr2 assessed as inhibition of fungal growth measured after 24 hrs by CLSI based microtiter plate analysis; assay type: functional
[7] = tested on: [Candida] auris; experiment: Antifungal activity against clinical isolate fluconazole-resistant Candida auris CBS12774 assessed as inhibition of fungal growth measured after 24 hrs by CLSI based microtiter plate analysis; assay type: functional; details: Candidozyma auris
[8] = tested on: Candida albicans; experiment: Antifungal activity against clinical isolate Candida albicans SCUPC2R14MPG2A harbouring UPC2 mutation overexpressing […] Erg11 assessed as inhibition of fungal growth measured after 24 hrs by CLSI based microtiter plate analysis; assay type: functional
[9] = tested on: Nakaseomyces glabratus; experiment: Antifungal activity against clinical isolate fluconazole-resistant Candida glabrata CG2 assessed as inhibition of fungal growth measured after 24 hrs by CLSI based microtiter plate analysis; assay type: functional
[10] = tested on: Cryptococcus neoformans; experiment: Antifungal activity against clinical isolate fluconazole-resistant Cryptococcus neoformans H99 assessed as inhibition of fungal growth measured after 24 hrs by CLSI based microtiter plate analysis; assay type: functional
[11] = Induction of drug resistance in wild-type Candida albicans SC5314 assessed as change in MIC at 0.5 times of MIC measured after 30 passages by broth microdilution method (reference value: 2 microg/ml); assay type: functional
[12] = tested on: Candida albicans; experiment: Antifungal activity against clinical isolate fluconazole-resistant Candida albicans CA632 assessed as inhibition of fungal growth measured after 24 hrs by CLSI based microtiter plate analysis; assay type: functional
[13] = tested on: Candida tropicalis; experiment: Antifungal activity against clinical isolate fluconazole-resistant Candida tropicalis CT10 assessed as inhibition of fungal growth measured after 24 hrs by CLSI based microtiter plate analysis; assay type: functional
[14] = tested on: Candida albicans; experiment: microbe, parasite or virus in culture; assay type: functional; details: DSY654, time 24 hrs
Description: Antifungal activity against efflux pump-deficient Candida albicans DSY654 assessed as inhibition of fungal growth measured after 24 hrs by CLSI based microtiter plate analysis

[15] = tested on: Candida albicans; experiment: Antifungal activity against clinical isolate fluconazole-resistant Candida albicans DSY296 harbouring TAC1 mutation overexpressing efflux pump CdrL and Cdr2 assessed as inhibition of fungal growth measured after 24 hrs by CLSI based microtiter plate analysis; assay type: functional
[16] = tested on: Candida albicans; experiment: Antifungal activity against clinical isolate Candida albicans YEM15 overexpressing efflux pump CdrL and Cdr2 assessed as inhibition of fungal growth measured after 24 hrs by CLSI based microtiter plate analysis; assay type: functional
[17] = tested on: Candida albicans; experiment: Antifungal activity against wild-type Candida albicans SC5314 assessed as inhibition of fungal growth measured after 24 hrs by CLSI based microtiter plate analysis; assay type: functional; details: Candida albicans, SC5314, 24 h, read-out: MIC80
[18] = tested on: Candida albicans; experiment: Antifungal activity against clinical isolate Candida albicans YEM13 overexpressing efflux pump MdrL assessed as inhibition of fungal growth measured after 24 hrs by CLSI based microtiter plate analysis; assay type: functional

Compound	Activity [1]	Activity [2]	Activity [3]	MIC80 [4] [µg/mL]	MIC80 [5] [µg/mL]	MIC80 [6] [µg/mL]	MIC80 [7] [µg/mL]	MIC80 [8] [µg/mL]	MIC80 [9] [µg/mL]	MIC80 [10] [µg/mL]	MIC [11] [µg/mL]	MIC80 [12] [µg/mL]	MIC80 [13] [µg/mL]	MIC80 [14] [µg/mL]	MIC80 [15] [µg/mL]	MIC80 [16] [µg/mL]	MIC80 [17] [µg/mL]	MIC80 [18] [µg/mL]
C=C1C(=O)[C@@]2(C)CC[C@@H]3[C@@]1(CC[C@H]1[C@@]3(C)CCC[C@@]1(C)C(=O)OCCC[P+](c1ccccc1)(c1ccccc1)c1ccccc1)C2.[I-]	inactive	Toxic	–	–	–	–	–	–	–	–	–	–	–	–	–	–	–	–
OC(Cn1cncn1)(Cn1cncn1)c1ccc(F)cc1F [FLUCONAZOLE]	–	–	Non-Toxic	> 128	> 128	> 128	> 128	> 128	64 (≈ 209 µM)	2 (≈ 6.53 µM)	128	> 128	> 128	0.5 (≈ 1.63 µM)	> 128	64 (≈ 209 µM)	2 (≈ 6.53 µM)	64 (≈ 209 µM)
